This is an account of results in ChEMBL document CHEMBL5365441, “Novel Foscan®-derived ring-fused chlorins for photodynamic therapy of cancer” (Bioorg Med Chem, 2023).

For orientation: IC50 means the concentration needed to halve the response being measured.

Series [1] is described as follows: Emission property of compound in DMSO assessed as fluorescence quantum yield. It is filed as physicochemical.
Series [2] relates to MDA-MB-231. The series is described as follows: Cytotoxicity against human MDA-MB-231 cells assessed as reduction in cell viability incubated for 24 hrs under dark condition by resazurin reduction assay. It is filed as functional, cell-based. Particulars: MDA-MB-231, 24 h; call rule not given here. In general terms: Resazurin is reduced to fluorescent resorufin, in cell work by metabolically active cells.

Series [3] is described as follows: Drug internalization in mouse NIH/3T3 cells at 2.5 uM by flow cytometry analysis. It is filed as ADME, cell-based. Particulars: nih3t3, 2.5 µM, TDE = time-dependent effect, time 3-24 hrs. (Flow cytometry measures light scatter and fluorescence of single cells or particles in a stream.)
Series [4] can be described thus: Photostability of compound in DMSO assessed as photodecomposition quantum yield. It is filed as physicochemical.
Series [5] in a line: Photocytotoxicity against mouse NIH/3T3 cells assessed as reduction in cell viability preincubated for 24 hrs followed by washout and 1 J/cm2 light irradiation for 24 hrs by resazurin reduction assay. It is filed as toxicity, cell-based, NIH3T3.
In series [6] the test system is MDA-MB-231. Put plainly: Phototherapeutic index, ratio of IC50 for cytotoxicity against human MDA-MB-231 cells under dark condition to IC50 for photocytotoxicity against human MDA-MB-231 cells in presence of 1 J/cm2 light irradiation. It is filed as functional.
Series [7] is described as follows: Cytotoxicity against mouse NIH/3T3 cells assessed as reduction in cell viability incubated for 24 hrs under dark condition by resazurin reduction assay. It is filed as toxicity, cell-based, NIH3T3.
Series [8] in a line: Drug internalization in human MDA-MB-231 cells at 2.5 uM by flow cytometry analysis. It is filed as ADME, cell-based. Particulars: mda-mb-231, 2.5 µM, TDE = time-dependent effect, time 3-24 hrs.
Series [9] is described as follows: Induction of singlet oxygen production in EtOH assessed as singlet oxygen quantum yield by SOSG reagent based assay. It is filed as functional.
Series [10] concerns MDA-MB-231. Put plainly: Photocytotoxicity against human MDA-MB-231 cells assessed as reduction in cell viability preincubated for 24 hrs followed by washout and 1 J/cm2 light irradiation for 24 hrs by resazurin reduction assay. It is filed as functional, cell-based. Particulars: MDA-MB-231, light or radiation study.
Series [11] in a line: Drug distribution in endoplasmic reticulum of human U2OS cells expressing CALR-GFP assessed as increase in fluorescence intensity at 5 uM incubated for 24 hrs by Hoechst staining based confocal microscopic analysis. It is filed as ADME, subcellular.
Series [12] can be described thus: Drug distribution in golgi body of human U2OS cells expressing GALT1-GFP assessed as increase in fluorescence intensity at 5 uM incubated for 24 hrs by Hoechst staining based confocal microscopic analysis. It is filed as ADME, subcellular.

For `OCc1nn2c(c1CO)CC1c3nc(c(-c4cccc(O)c4)c4ccc([nH]4)c(-c4cccc(O)c4)c4nc(c(-c5cccc(O)c5)c5ccc([nH]5)c3-c3cccc(O)c3)C=C4)C1C2` (centres undefined), the Activity in series [1] was 0.1; in series [4] it was 54.8 10^-6No_unit; in series [9] it was 0.49. Besides, the IC50 was 11400 nM in the series with MDA-MB-231 [2], 343 nM in series [5] and 309 nM with MDA-MB-231 [10]. For the same compound, the Drug uptake result in [3] and in series [8] was “Tde” throughout. The “Ratio IC50” value in the series on MDA-MB-231 [6] is listed as 37. For the same compound, in series [7], the IC50 at 24 h was greater than 10000 nM.
As to `COC(=O)c1cc2n(n1)CC1c3nc(c(-c4cccc(O)c4)c4ccc([nH]4)c(-c4cccc(O)c4)c4nc(c(-c5cccc(O)c5)c5ccc([nH]5)c3-c3cccc(O)c3)C=C4)C1C2` (centres undefined), the values for the Activity in [1], in series [4] and in series [9] were 0.11, 60.8 10^-6No_unit and 0.53, respectively. Moreover, the results for the IC50 (in the series on MDA-MB-231 [2]; in [5]; in the series with MDA-MB-231 [10]) were 7740 nM, 109 nM and 138 nM, respectively. Also, the Drug uptake entry in series [3] and in series [8] was “Tde” in each case. The “Ratio IC50” value in the series on MDA-MB-231 [6] is on record as 56.27. Further, in series [7], the IC50 at 24 h is greater than 10000 nM.
Turning to `[N-]=[N+]=NCc1cc2n(n1)CC1c3nc(c(-c4cccc(O)c4)c4ccc([nH]4)c(-c4cccc(O)c4)c4nc(c(-c5cccc(O)c5)c5ccc([nH]5)c3-c3cccc(O)c3)C=C4)C1C2` (centres undefined), the Activity was 0.12 in series [1], 60.8 10^-6No_unit in series [4] and 0.47 in [9]. The IC50 in the series on MDA-MB-231 [2] came to 15800 nM; in series [5] it was 93.1 nM; with MDA-MB-231 [10] it was 106 nM. The Drug uptake result in [3] and in [8] was “Tde” throughout. In addition, in the series with MDA-MB-231 [6], the “Ratio IC50” value is given as 149.7. Besides, in series [7], the IC50 at 24 h turned out to be 10600 nM.
With `OCc1cc2n(n1)CC1c3nc(c(-c4cccc(O)c4)c4ccc([nH]4)c(-c4cccc(O)c4)c4nc(c(-c5cccc(O)c5)c5ccc([nH]5)c3-c3cccc(O)c3)C=C4)C1C2` (centres undefined), the Activity was 0.1 in [1], 52.7 10^-6No_unit in series [4] and 0.5 in series [9]. In addition, the IC50 is 7740 nM in the series with MDA-MB-231 [2], 107 nM in series [5] and 86.3 nM in the series with MDA-MB-231 [10]. Moreover, the Drug uptake result in [3] was “Tde”; in series [11], “Active”; in series [8] it was “Tde”; in series [12], “Active”. In the series on MDA-MB-231 [6], the “Ratio IC50” value was 93.37. The IC50 at 24 h in [7] is greater than 10000 nM.
Consider `Oc1cccc(-c2c3nc(c(-c4cccc(O)c4)c4ccc([nH]4)c(-c4cccc(O)c4)c4nc(c(-c5cccc(O)c5)c5ccc2[nH]5)C=C4)C=C3)c1`, for which the figures for the half-maximal inhibitory concentration (IC50) (in the series with MDA-MB-231 [2]; in series [5]; with MDA-MB-231 [10]) were 3310 nM, 12.5 nM and 25.7 nM, respectively. Further, the Drug uptake entry in series [3] and in [8] was “Tde” throughout. Also, in [7], the IC50 at 24 h amounted to 9160 nM.
Take `COC(=O)c1cc2n(n1)CC1c3nc(c(-c4cccc(OC(C)=O)c4)c4ccc([nH]4)c(-c4cccc(OC(C)=O)c4)c4nc(c(-c5cccc(OC(C)=O)c5)c5ccc([nH]5)c3-c3cccc(OC(C)=O)c3)C=C4)C1C2` (centres undefined): the Activity is 0.11 in series [1], 66.9 10^-6No_unit in series [4] and 0.45 in [9]. Also, the figures for the IC50 (with MDA-MB-231 [2]; in series [5]; with MDA-MB-231 [10]) were greater than 10000 nM, 617 nM and 1.3 nM, respectively. Moreover, the Drug uptake result in series [3] is listed as “Tde”; in series [11] it was “Not Active”; in series [8], “Tde”; in series [12], “Not Active”. Further, in series [7], the IC50 at 24 h is greater than 10000 nM.
